Measurements published in publication PMC5750657, “In Vitro Phase I Metabolism of CRV431, a Novel Oral Drug Candidate for Chronic Hepatitis B” (Pharmaceutics, 2017).

Columns and labels:
Type in all cases: in vitro ADME
[1] = Metabolic stability of CRV431 in human liver microsomes
Experimental: Incubations of CRV431 (1 and 10 μM) with pooled human liver microsomes (1 mg protein/mL) were conducted for 30 min. […] CRV431 was added to incubations in DMSO (0.1% v/v). Additional incubations of CRV431 (1 and 10 μM) with human liver microsomes (1 mg protein/mL) were carried out at 0, 15, 30, 60, and 120 min. Reactions were initiated by the addition of the NADPH-generating system, and were stopped by the addition of 175 μL of acetonitrile. The samples were centrifuged (920× g for 10 min at 10 °C), and the supernatant fractions were analyzed by LC-MS/MS (Sciex, Redwood City, CA, USA) to quantify the amount of unchanged CRV431 based on a calibration curve (ranging from 0.01 to 15 μM). Zero-time, zero-cofactor (no NADPH), zero-substrate, and zero-protein served as blanks.
(§1) The electrospray voltage was set at 4500 volts.

recombinant human CYP1A2 = target: T1, recombinant human CYP1A2 (Homo sapiens, UniProt P05177); experiment: Metabolism by recombinant human CYP enzymes: CYP1A2; conditions: CRV431 1 μM; 50 pmol CYP/mL; 15 min
T1 construct: purchased Sekisui Xenotech, Kansas City, MO, USA
T1 sequence (P05177 1-516): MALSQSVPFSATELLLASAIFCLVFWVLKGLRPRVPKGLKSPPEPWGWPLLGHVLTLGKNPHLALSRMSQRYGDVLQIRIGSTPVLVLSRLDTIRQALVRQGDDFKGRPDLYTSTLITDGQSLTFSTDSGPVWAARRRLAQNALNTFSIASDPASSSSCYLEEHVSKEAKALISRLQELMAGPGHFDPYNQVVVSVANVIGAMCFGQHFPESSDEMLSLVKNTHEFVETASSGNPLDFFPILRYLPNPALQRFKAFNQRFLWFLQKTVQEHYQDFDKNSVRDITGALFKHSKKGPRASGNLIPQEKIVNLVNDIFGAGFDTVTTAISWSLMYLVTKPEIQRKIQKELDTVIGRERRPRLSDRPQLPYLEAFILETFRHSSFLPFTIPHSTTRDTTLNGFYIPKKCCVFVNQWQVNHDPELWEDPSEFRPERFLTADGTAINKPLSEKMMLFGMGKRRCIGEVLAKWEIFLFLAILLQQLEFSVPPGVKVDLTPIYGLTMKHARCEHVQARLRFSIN
Experimental: (§2) This experiment was carried out to determine the cytochrome P450 (CYP) enzymes capable of metabolizing CRV431. […] Reactions were initiated by the addition of cofactor, and were terminated at zero and 15 min by the addition of 175 μL ice-cold methanol.
as §1

[2] = target: T2, recombinant human CYP2C19 (Homo sapiens, UniProt P33261); experiment: Metabolism by recombinant human CYP enzymes: CYP2C19; conditions: CRV431 1 μM; 50 pmol CYP/mL; 15 min
T2 construct: purchased Sekisui Xenotech, Kansas City, MO, USA
T2 sequence (P33261 whole entry): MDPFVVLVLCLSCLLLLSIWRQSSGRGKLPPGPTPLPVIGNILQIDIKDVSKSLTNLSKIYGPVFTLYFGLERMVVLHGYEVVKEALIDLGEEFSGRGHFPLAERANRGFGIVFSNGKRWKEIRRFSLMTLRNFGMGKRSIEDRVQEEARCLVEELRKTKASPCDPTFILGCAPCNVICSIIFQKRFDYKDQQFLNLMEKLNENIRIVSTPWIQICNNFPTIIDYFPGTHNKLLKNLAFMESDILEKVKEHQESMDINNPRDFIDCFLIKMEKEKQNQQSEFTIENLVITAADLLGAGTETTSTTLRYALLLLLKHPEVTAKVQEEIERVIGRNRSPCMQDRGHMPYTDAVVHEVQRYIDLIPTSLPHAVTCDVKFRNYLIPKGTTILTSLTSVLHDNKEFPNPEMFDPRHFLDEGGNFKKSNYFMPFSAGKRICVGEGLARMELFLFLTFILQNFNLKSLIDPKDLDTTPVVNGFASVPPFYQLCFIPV
Experimental: as §2, §1

recombinant human CYP2D6 = target: T3, recombinant human CYP2D6 (Homo sapiens, UniProt P10635); experiment: Metabolism by recombinant human CYP enzymes: CYP2D6; conditions: CRV431 1 μM; 50 pmol CYP/mL; 15 min
T3 construct: purchased Sekisui Xenotech, Kansas City, MO, USA
T3 sequence (P10635 whole entry): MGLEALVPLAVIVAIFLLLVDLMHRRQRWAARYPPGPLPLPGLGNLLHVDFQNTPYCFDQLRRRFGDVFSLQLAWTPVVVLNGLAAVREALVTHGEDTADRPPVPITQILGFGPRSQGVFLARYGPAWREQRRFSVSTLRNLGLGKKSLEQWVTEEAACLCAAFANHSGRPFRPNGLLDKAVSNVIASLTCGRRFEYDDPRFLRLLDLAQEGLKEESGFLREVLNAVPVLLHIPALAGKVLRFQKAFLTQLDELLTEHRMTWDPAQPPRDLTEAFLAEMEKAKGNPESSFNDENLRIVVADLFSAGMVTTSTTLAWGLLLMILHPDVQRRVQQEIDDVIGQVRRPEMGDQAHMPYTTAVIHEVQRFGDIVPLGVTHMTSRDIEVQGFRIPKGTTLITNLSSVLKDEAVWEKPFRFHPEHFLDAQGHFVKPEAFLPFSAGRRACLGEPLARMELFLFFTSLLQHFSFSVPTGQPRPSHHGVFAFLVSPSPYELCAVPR
Experimental: as §2, §1

recombinant human CYP3A4 = target: T4, recombinant human CYP3A4 (Homo sapiens, UniProt P08684); experiment: Metabolism by recombinant human CYP enzymes: CYP3A4; conditions: 50 pmol CYP/mL, 15 min
T4 construct: purchased Sekisui Xenotech, Kansas City, MO, USA
T4 sequence (P08684 whole entry): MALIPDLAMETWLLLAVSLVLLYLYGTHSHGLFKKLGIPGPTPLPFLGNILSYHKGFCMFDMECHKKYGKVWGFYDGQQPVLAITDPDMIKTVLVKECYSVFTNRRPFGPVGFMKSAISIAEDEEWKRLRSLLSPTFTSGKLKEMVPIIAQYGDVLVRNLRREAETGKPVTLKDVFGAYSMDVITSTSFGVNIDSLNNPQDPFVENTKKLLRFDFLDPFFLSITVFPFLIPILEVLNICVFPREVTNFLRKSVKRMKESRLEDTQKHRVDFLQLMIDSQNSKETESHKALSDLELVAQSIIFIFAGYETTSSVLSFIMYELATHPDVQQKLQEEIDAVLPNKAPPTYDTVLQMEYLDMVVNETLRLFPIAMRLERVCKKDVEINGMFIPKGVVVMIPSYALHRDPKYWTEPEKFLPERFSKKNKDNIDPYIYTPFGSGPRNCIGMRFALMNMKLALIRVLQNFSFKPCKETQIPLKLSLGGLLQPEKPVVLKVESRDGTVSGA
Experimental: as §2, §1

[3] = Recombinant CYP panel: incubation with control bactosomes; conditions: CRV431 1 μM, 15 min
Experimental: as §2, §1

[4] = test system: other recombinant human CYP enzymes; experiment: Metabolism by the other recombinant human CYP enzymes evaluated; conditions: CRV431 1 and 10 μM; the CYP enzymes of the panel not given; 15 min
Experimental: as §2, §1

[5] = CRV431 metabolite profile in human liver microsomes (ESI-LCMS); conditions: pH 7.4; for Amount of CRV431 remaining: microsomes, 1 μg/mL
Experimental: (§3) Human and rat liver microsomes were obtained from Xenotech (Kansas City, MO, USA) and stored at −80 °C. Monkey liver microsomes were obtained from Thermo Fisher Scientific (Waltham, MA, USA) and stored at −80 °C. Preliminary microsomal biotransformation experiments were run with 0.1, 1, and 10 μg/mL CRV431. CRV431 biotransformation was minimal at 0.1 μg/mL, while both 1 and 10 μg/mL CRV431 gave sufficient metabolite quantity and identical metabolite profiles. Additionally, preliminary experiments were conducted with human liver microsome (HLM) levels ranging for 0.125 to 1 mg. Subsequent microsomal biotransformation experiments were conducted using 0.5 mg of microsome per assay.
(§4) Thawed microsome 20 mg/mL stocks were diluted 32× into cold buffer (Phosphate pH 7.4 + MgCl2 3 mM + EDTA 1 mM) to 0.625 mg/mL, and stored on ice. For experiments with CRV431, 2 μL of […] stocks were added to cold 1-mL microsomes (500× dilution) to generate the 1 μg/mL samples. […]. Samples were mixed by vortexing, and 160 μL was transferred into tubes containing 40 μL buffer on ice. Metabolic activity was stopped by the addition of ice-cold methanol (200 μL), followed by vortexing for an additional 10 s; these were zero-time samples. The extraction was completed by waiting 5 min, vortexing samples again for 5 s, then spinning the samples for 10 min at 3300 rpm at 4 °C in a pre-cooled microcentrifuge. The supernatant (325 μL) was transferred to new tubes and stored at −80 °C.
(§5) For time course experiments, metabolism was initiated by adding 40 μL of NADPH Regenerating System (5 mg/mL NADP, 6.5 mg/mL G6P and 5 units/mL of G6P dehydrogenase). The sample was vortexed for 2 s and placed in a 37 °C bath. For CRV431 experiments at time points 10 min, 20 min, 40 min, and 80 min, 200 μL of ice-cold methanol was added to the 200 μL microsome reactions, and extracted as described above. Samples were stored at −80 °C. For verapamil experiments at 15 min, 200 μL of ice-cold methanol was added to the 200 μL microsome reactions and extracted as described above. Samples were stored at −80 °C.
(§6) Microsome extracts were removed from the freezer (−80 °C) and left to thaw at room temperature. Aliquots (50 μL) were removed and placed in 2 mL plastic Eppendorf microcentrifuge tubes, to which 200 μL of a 0.2 M ZnSO4 solution (0.2 M ZnSO4 in water, plus HPLC grade methanol, 1:4, v/v) was added as protein precipitating reagent. The tubes were capped and vortexed for 10 s, and then left on the benchtop for 10 min. Samples were then centrifuged at 3300 rpm for 10 min. The clear supernatant (≈150 μL) was transferred to an appropriately labeled LC-MS autosampler vial and capped.
(§7) Samples were analyzed by electrospray ionization liquid chromatography mass spectrometry (ESI-LCMS) on an Agilent HP 1100 LC-MS. Samples were placed in an autosampler maintained at 5 °C. CRV431 microsomal extracts (20 μL) were injected onto a Zorbax SB-C18 reverse phase HPLC column (1.8 μm Rapid Resolution HT Cartridge, 4.6 × 30 mm (Agilent, Santa Clara, CA, USA) maintained at 75 °C, and the components were separated using an acetonitrile–water gradient system (Table 2). The sodium adducts of CRV431 (1326 m/z) and metabolites were analyzed by mass spectrometry (MS) using electrospray ionization (ESI) in positive ion mode. The ESI–MS was optimized with N2 gas temperature set at 350 °C and drying gas at […]. The fragmentor and capillary voltages were set at 260 and 4000 volts, respectively. The nebulizer pressure was set at 40 psig. For the initial analysis of the microsomal extracts, the ESI–MS was run in scan mode (1260–1460 m/z) to capture all ion signals present. Subsequently, the microsomal extracts were run in selected ion mode (SIM), with the ions identified in the scans.

[6] = CRV431 metabolite profile in monkey liver microsomes (ESI-LCMS)
Experimental: as §3, §4, §5, §6, §7

[7] = CRV431 metabolite profile in rat liver microsomes (ESI-LCMS); conditions: Sprague-Dawley, pH 7.4
Experimental: as §3, §4, §5, §6, §7

CYP2C9 [8] = target: T5, CYP2C9 (Homo sapiens, UniProt P11712); experiment: Metabolism by recombinant human CYP enzymes: CYP2C9; design: purchased Sekisui Xenotech, Kansas City, MO, USA; conditions: 50 pmol CYP/mL, 15 min
T5 sequence (P11712 whole entry): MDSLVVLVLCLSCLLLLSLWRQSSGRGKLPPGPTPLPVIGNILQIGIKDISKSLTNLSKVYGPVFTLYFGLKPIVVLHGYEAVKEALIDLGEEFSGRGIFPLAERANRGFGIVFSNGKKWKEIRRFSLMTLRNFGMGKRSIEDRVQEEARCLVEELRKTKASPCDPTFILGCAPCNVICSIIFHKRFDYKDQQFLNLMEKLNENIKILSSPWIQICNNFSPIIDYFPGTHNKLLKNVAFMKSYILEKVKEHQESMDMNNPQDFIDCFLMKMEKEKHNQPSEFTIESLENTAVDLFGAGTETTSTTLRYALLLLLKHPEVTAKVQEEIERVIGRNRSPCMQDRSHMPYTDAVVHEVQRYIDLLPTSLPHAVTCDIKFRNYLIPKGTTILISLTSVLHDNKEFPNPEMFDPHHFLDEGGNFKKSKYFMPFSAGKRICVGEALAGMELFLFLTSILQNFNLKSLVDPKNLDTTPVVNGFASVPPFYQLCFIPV
Experimental: as §2, §1

CYP2C9 [9] = target: T5, CYP2C9; experiment: Chemical inhibition of CRV431 loss in human liver microsomes: CYP2C9; design: tissue Sekisui Xenotech, Kansas City, MO, USA; host or cells: human liver microsomes; conditions: pH 7.4, probe CRV431 (1 μM; loss of parent), metabolism-dependent inhibitor, 30 min pre-incubation
Experimental: (§8) This experiment was carried out manually to verify the role of individual CYP enzymes in the metabolism of CRV431. […] Incubations were conducted at 37 ± 1 °C in 0.2 mL incubation mixtures (final volume) containing potassium phosphate buffer (50 mM, pH 7.4), MgCl2 (3 mM) and EDTA (1 mM, pH 7.4), with an NADPH-generating system as cofactor. The NADPH-generating system consisted of NADP (1 mM, pH 7.4), glucose-6-phosphate (5 mM, pH 7.4), and glucose-6-phosphate dehydrogenase (1 Unit/mL). CRV431 was added to the incubation mixtures in DMSO (0.1% v/v). For incubations with direct-acting chemical inhibitors, reactions were initiated by the addition of cofactor, and stopped by the addition of an equal volume of acetonitrile stop reagent. For incubations with metabolism-dependent chemical inhibitors, 30 min pre-incubations of human liver microsomes and the inhibitor were initiated by the addition of the cofactor. CRV431 was then added to the mixture to be incubated for 15 min. Reactions were stopped by the addition of an equal volume of acetonitrile stop reagent. Samples were analyzed by LC-MS/MS to quantify the amount of unchanged CRV431. Control samples with no CYP inhibitor present were conducted in the presence of the solvent used to dissolve the CYP inhibitor (“solvent control”).
(§9) Samples were analyzed by LC-MS/MS on a SCIEX 4000 QTrap mass spectrometer (Sciex, Rewood City, CA, USA). […]

CYP2C19 = experiment: Chemical inhibition of CRV431 loss in human liver microsomes: CYP2C19; conditions: pH 7.4, probe CRV431 (1 μM; loss of parent), metabolism-dependent inhibitor (also inhibits CYP3A4/5), 30 min pre-incubation
Experimental: as §8, §9

## CCC1NC(=O)C([C@H](O)[C@H](C)CCCCCCNC(C)=O)N(C)C(=O)C(C(C)C)N(C)C(=O)[C@H](CC(C)C)N(C)C(=O)[C@H](CC(C)C)N(C)C(=O)C(C)NC(=O)[C@H](C)NC(=O)C(CC(C)C)N(C)C(=O)[C@H](C(C)C)NC(=O)[C@H](CC(C)C)N(C)C(=O)C(C)N(C)C1=O (stereo in doubt) [CRV431]
[1]; 1 and 10 μM, 1 mg protein/mL, after 60 min incubation, with NADPH-generating system
  Biotransformation of CRV431: nearly complete
[1]; absence of microsomal proteins and the NADPH-generating system, same time period
  Biotransformation of CRV431: no biotransformation
Recombinant human CYP1A2
  Disappearance of CRV431: 19%
[2]
  Disappearance of CRV431: 17%
Recombinant human CYP2D6
  Disappearance of CRV431: 32%
Recombinant human CYP3A4; CRV431 1 μM
  Disappearance of CRV431: 64%
Recombinant human CYP3A4; CRV431 10 μM
  Loss of CRV431: 41%
[3]
  Loss of CRV431: 24%
[4]
  Substrate loss: less than 15%
[5]; 0 min, 1 ug/mL
  % of Total Drug-Related Mass Versus Time (minutes) 0 min: 96.4%
[5]; 10 min, 1 ug/mL
  % of Total Drug-Related Mass Versus Time (minutes) 10 min: 57.0%
[5]; 20 min, 1 ug/mL
  % of Total Drug-Related Mass Versus Time (minutes) 20 min: 27.5%
[5]; 40 min, 1 ug/mL
  % of Total Drug-Related Mass Versus Time (minutes) 40 min: 10.4%
[5]; 80 min, 1 ug/mL
  % of Total Drug-Related Mass Versus Time (minutes) 80 min: 4.0%
[5]; 10 min
  Amount of CRV431 remaining: 71.8%
[5]; 80 min
  Amount of CRV431 remaining: 5.3%
[6]; monkey relative to human liver microsomes
  Rate of CRV431 metabolism in monkey liver microsomes, greater than in human microsomes: at least five-fold
[6]; monkey, 0 min, 1 ug/mL, pH 7.4
  % of Total Drug-Related Mass Versus Time (minutes) 0 min: 96.3%
[6]; monkey, 2.5 min, 1 ug/mL, pH 7.4
  % of Total Drug-Related Mass Versus Time (minutes) 2.5 min: 59.4%
[6]; monkey, 5 min, 1 ug/mL, pH 7.4
  % of Total Drug-Related Mass Versus Time (minutes) 5 min: 21.5%
[6]; monkey, 10 min, 1 ug/mL, pH 7.4
  % of Total Drug-Related Mass Versus Time (minutes) 10 min: 12.3%
[6]; monkey, 20 min, 1 ug/mL, pH 7.4
  % of Total Drug-Related Mass Versus Time (minutes) 20 min: 4.3%
[6]; monkey, 40 min, 1 ug/mL, pH 7.4
  % of Total Drug-Related Mass Versus Time (minutes) 40 min: 6.6%
[6]; monkey, 80 min, 1 ug/mL, pH 7.4
  % of Total Drug-Related Mass Versus Time (minutes) 80 min: 6.7%
[6]; monkey, microsomes, 10 min, 1 μg/mL, pH 7.4
  Amount of CRV431 remaining: 13.2%
[7]; 0 min, 1 ug/mL
  % of Total Drug-Related Mass Versus Time (minutes) 0 min: 96.2%
[7]; 10 min, 1 ug/mL
  % of Total Drug-Related Mass Versus Time (minutes) 10 min: 95.4%
[7]; 20 min, 1 ug/mL
  % of Total Drug-Related Mass Versus Time (minutes) 20 min: 94.6%
[7]; 40 min, 1 ug/mL
  % of Total Drug-Related Mass Versus Time (minutes) 40 min: 93.6%
[7]; 80 min, 1 ug/mL
  % of Total Drug-Related Mass Versus Time (minutes) 80 min: 92.3%
[7]; microsomes, 80 min, 1 μg/mL
  Amount of CRV431 remaining: 92.3%
CYP2C9 [8]; CRV431 1 μM
  Disappearance of CRV431: 27%
CYP2C9 [8]; CRV431 10 μM
  Loss of CRV431: 27%

## O=C(O)COc1ccc(C(=O)c2cccs2)c(Cl)c1Cl [tienilic acid]
CYP2C9 [9]
  inhibition at 15 min: 7%

## COc1ccc2nc([S@@+]([O-])Cc3ncc(C)c(OC)c3C)[nH]c2c1 [esomeprazole]
CYP2C19
  inhibition at 15 min: 37%
